These results are taken from the supplement of paper PMC10307832.

Common to all, as to test: relative viability (nuclei count vs DMSO), 5 days (fraction); higher = more cells survive
Compound in assay [1]: C#Cc1cccc(Nc2ncnc3cc(OC)c(OCCCCCCC(=O)NO)cc23)c1 [CUDC-101] + CC(C)C[C@H](NC(=O)[C@H](Cc1ccccc1)NC(=O)c1cnccn1)B(O)O [Bortezomib] (partner 0.002 µM)
In short, it runs like this: (§1)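 Lung cancer cell lines were seeded in 1536-well plates and dosed by pin tool the next day, with either a single drug or a fixed anchor-drug dose combined with five library-drug doses (not always all listed) spaced in √10 steps. Five days later, one step fixed the cells and stained their nuclei (final 0.05% Triton X-100, 1% formaldehyde, 1 ug/ml Hoechst), and nuclei were counted on 4× images. Relative viability is the nuclei count in treated wells divided by the count in vehicle wells, and each value is the median of duplicate plates.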

Compound in assay [2]: COc1cc2/c(=N/c3ccc(Br)cc3F)nc[nH]c2cc1OCC1CCN(C)CC1 [Vandetanib] + CC(C)C[C@H](NC(=O)[C@H](Cc1ccccc1)NC(=O)c1cnccn1)B(O)O [Bortezomib] (partner 0.002 µM)
In short, it runs like this: as §1

Compound in assay [3]: COc1cc(N2CCC(N3CCN(C)CC3)CC2)ccc1Nc1ncc(Cl)c(Nc2ccccc2S(=O)(=O)C(C)C)n1 [NVP-TAE684] + O=C(CCCCCCC(=O)Nc1ccccc1)NO [Vorinostat] (partner 1 µM)
In a few lines: as §1

Compound in assay [4]: C1=CC=C2C(=C1)N=C(S2)C(C#N)C3=NC(=NC=C3)NCCC4=CN=CC=C4 + Cc1cc(Nc2cc(N3CCN(C)CC3)nc(Sc3ccc(NC(=O)C4CC4)cc3)n2)n[nH]1 [Tozasertib] (partner 0.1 µM)
In a few lines: as §1

As for NCI-H1915, the relative viability in assay [1] (first compound 0.01 µM) was determined as 1.01; in assay [1] (first compound 0.03162 µM) it was 1.01; in assay [1] (first compound 0.1 µM), 0.982; in assay [1] (first compound 0.3162 µM) it was 0.936; in assay [1] (first compound 1 µM) it was 0.836; in assay [2] (first compound 0.02 µM), 0.947. Besides, the relative viability in assay [2] (first compound 0.06325 µM) came out at 0.885; in assay [2] (first compound 0.2 µM), 1.07; in assay [2] (first compound 0.6325 µM), 0.973; in assay [2] (first compound 2 µM) it was 0.943; in assay [3] (first compound 0.2 µM), 0.579; in assay [3] (first compound 0.6325 µM), 0.547. For the same cell line, the relative viability in assay [3] (first compound 2 µM) amounted to 0.459; in assay [4] (first compound 0.005 µM) it was 0.343; in assay [4] (first compound 0.01581 µM) it was 0.455; in assay [4] (first compound 0.05 µM) it was 0.442; in assay [4] (first compound 0.1581 µM), 0.534; in assay [4] (first compound 0.5 µM), 0.305.
For NCI-H1975, the relative viability turned out to be 0.418 in assay [1] (first compound 0.01 µM); 0.361 in assay [1] (first compound 0.03162 µM); 0.427 in assay [1] (first compound 0.1 µM); 0.362 in assay [1] (first compound 0.3162 µM); 0.165 in assay [1] (first compound 1 µM); 0.359 in assay [2] (first compound 0.02 µM). In addition, the relative viability in assay [2] (first compound 0.06325 µM) came to 0.35; in assay [2] (first compound 0.2 µM), 0.376; in assay [2] (first compound 0.6325 µM) it was 0.355; in assay [2] (first compound 2 µM), 0.383; in assay [3] (first compound 0.2 µM), 0.694; in assay [3] (first compound 0.6325 µM), 0.666. Also, the relative viability in assay [3] (first compound 2 µM) was found to be 0.263; in assay [4] (first compound 0.005 µM), 0.458; in assay [4] (first compound 0.01581 µM), 0.741; in assay [4] (first compound 0.05 µM) it was 0.635; in assay [4] (first compound 0.1581 µM) it was 0.878; in assay [4] (first compound 0.5 µM), 0.203.
On to NCI-H1993, for which the relative viability was found to be 1.19 in assay [1] (first compound 0.01 µM); 1.12 in assay [1] (first compound 0.03162 µM); 0.782 in assay [1] (first compound 0.1 µM); 0.995 in assay [1] (first compound 0.3162 µM); 0.611 in assay [1] (first compound 1 µM); 1.03 in assay [2] (first compound 0.02 µM). The relative viability in assay [2] (first compound 0.06325 µM) came to 0.905; in assay [2] (first compound 0.2 µM), 1.04; in assay [2] (first compound 0.6325 µM) it was 0.807; in assay [2] (first compound 2 µM) it was 0.719; in assay [3] (first compound 0.2 µM) it was 0.713; in assay [3] (first compound 0.6325 µM) it was 0.695. Also, the relative viability came to 0.48 in assay [3] (first compound 2 µM); 0.625 in assay [4] (first compound 0.005 µM); 0.657 in assay [4] (first compound 0.01581 µM); 0.521 in assay [4] (first compound 0.05 µM); 0.608 in assay [4] (first compound 0.1581 µM); 0.577 in assay [4] (first compound 0.5 µM).
In the case of NCI-H2009, the relative viability in assay [1] (first compound 0.01 µM) was found to be 1.01; in assay [1] (first compound 0.03162 µM), 1.04; in assay [1] (first compound 0.1 µM), 1.05; in assay [1] (first compound 0.3162 µM), 1.04; in assay [1] (first compound 1 µM) it was 0.889; in assay [2] (first compound 0.02 µM), 0.895. Besides, the relative viability came to 0.931 in assay [2] (first compound 0.06325 µM); 1.06 in assay [2] (first compound 0.2 µM); 0.996 in assay [2] (first compound 0.6325 µM); 1.21 in assay [2] (first compound 2 µM); 0.733 in assay [3] (first compound 0.2 µM); 0.554 in assay [3] (first compound 0.6325 µM). Further, the relative viability amounted to 0.495 in assay [3] (first compound 2 µM); 0.683 in assay [4] (first compound 0.005 µM); 0.747 in assay [4] (first compound 0.01581 µM); 0.65 in assay [4] (first compound 0.05 µM); 0.763 in assay [4] (first compound 0.1581 µM); 0.629 in assay [4] (first compound 0.5 µM).
On to NCI-H2023, for which the relative viability in assay [1] (first compound 0.01 µM) came to 0.932; in assay [1] (first compound 0.03162 µM), 0.935; in assay [1] (first compound 0.1 µM), 1.08; in assay [1] (first compound 0.3162 µM), 1.26; in assay [1] (first compound 1 µM) it was 0.844; in assay [2] (first compound 0.02 µM), 0.924. In addition, the relative viability in assay [2] (first compound 0.06325 µM) worked out at 0.839; in assay [2] (first compound 0.2 µM), 0.96; in assay [2] (first compound 0.6325 µM), 1.03; in assay [2] (first compound 2 µM) it was 1.04; in assay [3] (first compound 0.2 µM), 0.646; in assay [3] (first compound 0.6325 µM), 0.634. For the same cell line, the relative viability was 0.102 in assay [3] (first compound 2 µM); 0.288 in assay [4] (first compound 0.005 µM); 0.386 in assay [4] (first compound 0.01581 µM); 0.251 in assay [4] (first compound 0.05 µM); 0.275 in assay [4] (first compound 0.1581 µM); 0.136 in assay [4] (first compound 0.5 µM).
As for NCI-H2085, the relative viability in assay [1] (first compound 0.01 µM) worked out at 1.07; in assay [1] (first compound 0.03162 µM), 1.08; in assay [1] (first compound 0.1 µM), 0.97; in assay [1] (first compound 0.3162 µM), 1.06; in assay [1] (first compound 1 µM) it was 0.915; in assay [2] (first compound 0.02 µM), 1.08. Moreover, the relative viability worked out at 1.02 in assay [2] (first compound 0.06325 µM); 1.02 in assay [2] (first compound 0.2 µM); 1.09 in assay [2] (first compound 0.6325 µM); 1.04 in assay [2] (first compound 2 µM); 0.817 in assay [3] (first compound 0.2 µM); 0.755 in assay [3] (first compound 0.6325 µM). In addition, the relative viability in assay [3] (first compound 2 µM) came to 0.725; in assay [4] (first compound 0.005 µM) it was 0.826; in assay [4] (first compound 0.01581 µM) it was 0.821; in assay [4] (first compound 0.05 µM), 0.744; in assay [4] (first compound 0.1581 µM) it was 0.813; in assay [4] (first compound 0.5 µM), 0.566.
NCI-H2087: the relative viability in assay [1] (first compound 0.01 µM) came to 0.813; in assay [1] (first compound 0.03162 µM), 0.871; in assay [1] (first compound 0.1 µM), 0.614; in assay [1] (first compound 0.3162 µM) it was 0.754; in assay [1] (first compound 1 µM), 0.445; in assay [2] (first compound 0.02 µM), 0.813. Moreover, the relative viability in assay [2] (first compound 0.06325 µM) stood at 0.761; in assay [2] (first compound 0.2 µM) it was 0.859; in assay [2] (first compound 0.6325 µM), 0.857; in assay [2] (first compound 2 µM), 0.833; in assay [3] (first compound 0.2 µM), 0.917; in assay [3] (first compound 0.6325 µM) it was 0.492. For the same cell line, the relative viability in assay [3] (first compound 2 µM) is 0.601; in assay [4] (first compound 0.005 µM), 0.201; in assay [4] (first compound 0.01581 µM), 0.229; in assay [4] (first compound 0.05 µM), 0.234; in assay [4] (first compound 0.1581 µM), 0.199; in assay [4] (first compound 0.5 µM), 0.211.
For NCI-H2126, the relative viability in assay [1] (first compound 0.01 µM) was found to be 1.12; in assay [1] (first compound 0.03162 µM) it was 1.14; in assay [1] (first compound 0.1 µM) it was 1.1; in assay [1] (first compound 0.3162 µM), 1.08; in assay [1] (first compound 1 µM), 1.01; in assay [2] (first compound 0.02 µM) it was 1.09. Besides, the relative viability came out at 1.07 in assay [2] (first compound 0.06325 µM); 1.06 in assay [2] (first compound 0.2 µM); 1.08 in assay [2] (first compound 0.6325 µM); 1.06 in assay [2] (first compound 2 µM); 0.808 in assay [3] (first compound 0.2 µM); 0.732 in assay [3] (first compound 0.6325 µM). Besides, the relative viability came to 0.443 in assay [3] (first compound 2 µM); 0.709 in assay [4] (first compound 0.005 µM); 0.837 in assay [4] (first compound 0.01581 µM); 0.823 in assay [4] (first compound 0.05 µM); 0.934 in assay [4] (first compound 0.1581 µM); 0.681 in assay [4] (first compound 0.5 µM).
